This is an account of results in ChEMBL document CHEMBL3507680, “University of Dundee, Gates Library screen for HepG2 cell viability”.

This series can be described thus: Human HepG2 cell viability assay in 384 well format. In kind it is toxicity, cell-based. Set-up: dose 125 nL, time 70.5 hour; cytotoxicity at 70.5 h: concentration not given beside the values. To be noted: HepG2 cells, read-out: Inhibition.

Each structure is given as a SMILES string.

In the case of `COCCc1noc(CN2CCN(c3ccc(OC)cc3)C(=O)C2C)n1` (configuration not stated), the cytotoxicity at 70.5 h is -15.8%.

For the compound `O=C(c1ccc(CN2CCCCC2)cc1)N1Cc2cnn(CCO)c2C1`, the cytotoxicity at 70.5 h came out at 19.3%.

In the case of `COC(=O)CNC(=O)c1ccc(OC2CCN(S(C)(=O)=O)CC2)c(Cl)c1`, the cytotoxicity at 70.5 h is -4.88%.

On to `COc1ccc2c(c1)OCC(C(=O)NCc1nc3c(s1)CCCC3)C2` (configuration not stated), for which the cytotoxicity at 70.5 h is -8.87%.

Consider `CCn1cncc1Cn1cccc(C(F)(F)F)c1=O`, for which the cytotoxicity at 70.5 h turned out to be 2.51%.

As to `Cc1[nH]nc(CCC(=O)NCC2COc3ccccc3C2)c1C` (configuration not stated), the cytotoxicity at 70.5 h is -6.82%.

Regarding `CN(C)C(=O)COc1ccccc1CN1CCCC2(C1)CN(C)C(=O)O2` (configuration not stated), the cytotoxicity at 70.5 h is -7.63%.

For the compound `CSCCCNC(=O)C(c1cccc(F)c1)N(C)C` (configuration not stated), the cytotoxicity at 70.5 h is -4.98%.

Turning to `Cc1cc(-c2nn(C)c(Cl)c2CN2CCN(C)C(C(=O)O)C2)no1` (configuration not stated), the cytotoxicity at 70.5 h is -5.8%.

In the case of `N[C@@H](C(=O)N1CCN(c2ccccc2Cl)C(=O)C1)c1ccccc1`, the cytotoxicity at 70.5 h was -14.1%.

Take `CCc1nc(CN(C)C(=O)C2CC(=O)N(c3cccc(O)c3)C2)no1` (configuration not stated): the cytotoxicity at 70.5 h is 3.57%.

As for `Cc1noc(CN2CC=C(c3cnn(C4CCS(=O)(=O)C4)c3)CC2)n1` (configuration not stated), the cytotoxicity at 70.5 h came to 27.9%.

On to `COC(=O)N1CCCCC1C(=O)N(C)Cc1cc(-c2cccnc2)no1` (configuration not stated), for which the cytotoxicity at 70.5 h was -8.4%.

With `CCc1nc(C)c(C(=O)N2CCNCC2C(=O)NCc2ccncc2)o1` (configuration not stated), the cytotoxicity at 70.5 h is -5.31%.

As to `CCn1nc(C)c(CCNC(=O)C2CCCN(C(C)=O)C2)c1C` (configuration not stated), the cytotoxicity at 70.5 h is -8.81%.

Regarding `c1ccc(C2CN(c3ncnc4[nH]cnc34)CCO2)cc1` (configuration not stated), the cytotoxicity at 70.5 h was -8.36%.

Consider `CCC[C@H]1CN(S(=O)(=O)c2cc(C)ccc2C)C[C@@H]1N`, for which the cytotoxicity at 70.5 h is -0.438%.

With `O=C(c1ccc(-c2ccoc2)nc1)N1CCCN(C2CCCCC2)CC1`, the cytotoxicity at 70.5 h is -12.9%.

Turning to `O=C(NCc1cccnc1N1CCc2ccccc2C1)c1cc(=O)[nH][nH]1`, the cytotoxicity at 70.5 h was -3.06%.

For the compound `CS(=O)(=O)N1C[C@@H]2CC[C@H](C1)N(C(=O)Cn1nc3ccccc3n1)C2`, the cytotoxicity at 70.5 h worked out at 20.9%.

`CCCN(Cc1nc(-c2ccoc2)oc1C)CC1CCCO1` (configuration not stated): the cytotoxicity at 70.5 h is -6%.

As to `COc1cc(-c2cnnc(NCC3CC3)n2)cc(OC)c1OC`, the cytotoxicity at 70.5 h worked out at 5.52%.

Consider `O=C1N(Cc2cccc(F)c2F)CCCC1(O)CNCc1ccccc1` (configuration not stated), for which the cytotoxicity at 70.5 h was determined as 19.6%.

Consider `CCc1ncc2c(n1)CN(C(=O)CNC(=O)C(C)C)C2`, for which the cytotoxicity at 70.5 h turned out to be 22.7%.

Regarding `CN1C(=O)CC(C(=O)O)C12CCN(Cc1cc(Cl)ccc1F)CC2` (configuration not stated), the cytotoxicity at 70.5 h worked out at 8.5%.

As for `Fc1ccc(N2CCCN(Cc3ccc(-c4cc[nH]n4)o3)CC2)cc1`, the cytotoxicity at 70.5 h is -0.367%.

For the compound `COc1cccc2ccc(CN3CCN(c4ncccc4C)CC3)nc12`, the cytotoxicity at 70.5 h was -7.71%.

Turning to `Cc1c[nH]c(C(=O)N2C[C@H]3CC[C@@H]2CN(Cc2cscn2)C3)n1`, the cytotoxicity at 70.5 h was -15.6%.

Take `COCC(Nc1ncnc2sc(C(=O)O)c(C)c12)c1ccnn1C` (configuration not stated): the cytotoxicity at 70.5 h was 0.588%.

For the compound `OC(c1cccs1)C1CCN(c2ncccn2)CC1` (configuration not stated), the cytotoxicity at 70.5 h is -8.6%.

Take `CN(Cc1nc(C2CC2)no1)C(=O)C1COc2ccccc2C1` (configuration not stated): the cytotoxicity at 70.5 h was -0.624%.

For `CN(C)C(=O)N1C[C@@H]2CC[C@H](C1)N(Cc1nnc(C3CC3)o1)C2`, the cytotoxicity at 70.5 h was -16.8%.

With `CSCCCNC(=O)C(c1ccccc1C)N(C)C` (configuration not stated), the cytotoxicity at 70.5 h was -6.07%.

As for `NC(=O)c1cccc(CC2CCN(C(=O)CCc3cccc(F)c3)C2)c1` (configuration not stated), the cytotoxicity at 70.5 h was -8.51%.

As for `CCc1cccc(NC(=O)CCN2CC=C(c3cnn(C)c3)CC2)c1`, the cytotoxicity at 70.5 h was -5.53%.

In the case of `CN(Cc1cccnc1)CC1CC12CCCC2` (configuration not stated), the cytotoxicity at 70.5 h is -5.63%.

As for `Cc1nn(CCC(=O)N2CCCC(OCc3cccnc3)C2)c(C)c1C` (configuration not stated), the cytotoxicity at 70.5 h is -6.47%.

Consider `Cn1nnnc1SCCNC(=O)CC1CCc2ccccc21` (configuration not stated), for which the cytotoxicity at 70.5 h is -1.31%.

For the compound `COc1cccc(CC(C)NCC(=O)Nc2ccccc2C)c1` (configuration not stated), the cytotoxicity at 70.5 h is -0.681%.

For `O=C(NCC1CCCO1)c1cc(COc2ccccc2F)[nH]n1` (configuration not stated), the cytotoxicity at 70.5 h is -3.44%.

As for `CNc1nc(C(=O)N2CCCCC2c2ccc(CN(C)C)cc2)cs1` (configuration not stated), the cytotoxicity at 70.5 h stood at 1.16%.

Take `O=C(NCc1n[nH]c2c1CCCCC2)c1cnn2c1CCCC2`: the cytotoxicity at 70.5 h is -12.2%.

For `Cc1ccc(C)c(N2CCN(CC3(O)CCNC3)CC2)c1` (configuration not stated), the cytotoxicity at 70.5 h is -0.198%.

Turning to `Cc1nc(CCCNC(=O)C2CC(=O)N(C3CCCC3)C2)sc1C` (configuration not stated), the cytotoxicity at 70.5 h was -9.24%.

With `COc1cc2c(cc1CN1C[C@@H](CN3CCOCC3)[C@@H](CO)C1)CCC2`, the cytotoxicity at 70.5 h was -2.99%.

As to `CC(C)c1nccc(CN2CCCC(O)(CN3CCCC3)C2)n1` (configuration not stated), the cytotoxicity at 70.5 h was -0.735%.

For the compound `O=C(c1ccc(S(=O)(=O)NCCc2ccccn2)cc1)N1CCCC1`, the cytotoxicity at 70.5 h was -14.8%.

For `CSCc1noc(CN2CCC3(CC2)CC(=O)N(CC(C)C)C3)n1`, the cytotoxicity at 70.5 h is -2.72%.

With `CC[C@H](N)C(=O)Nc1nn(CC(F)(F)F)c2cc(OC(C)C)ccc12`, the cytotoxicity at 70.5 h was -14.2%.

Turning to `O=C1CSc2ccccc2N1Cc1noc(C2CCCO2)n1` (configuration not stated), the cytotoxicity at 70.5 h was -5.67%.

For `CCc1cc(CN(C)C(=O)CN2CC(Cc3ccccc3)CC2=O)on1` (configuration not stated), the cytotoxicity at 70.5 h was determined as 2.31%.

Take `CN(C(=O)c1cnc(N2CCOCC2)nc1)C1Cc2ccccc2C1`: the cytotoxicity at 70.5 h was -12.4%.

`COc1cc(CN2CCCC2)ccc1OC12CCCN(CC1)C2` (configuration not stated): the cytotoxicity at 70.5 h was -18.9%.

On to `Cc1nc(CN2CCCC(CCc3ccccc3C(F)(F)F)C2)co1` (configuration not stated), for which the cytotoxicity at 70.5 h amounted to 22.6%.

Regarding `Cc1nc(CCNC(=O)c2cc(C(C)C)nn2C)sc1C`, the cytotoxicity at 70.5 h is -10.1%.

As for `CCN(CCn1cccn1)C(=O)CN1C(=O)OC[C@@H]1C(C)C`, the cytotoxicity at 70.5 h is -3.13%.

On to `Cc1nc(CC2CCN(C(=O)C(c3ccccc3C)N(C)C)CC2)no1` (configuration not stated), for which the cytotoxicity at 70.5 h was -13.1%.

Take `CN(Cc1ccc(C(=O)NCC2COCCO2)c(=O)[nH]1)CC(C)(C)C` (configuration not stated): the cytotoxicity at 70.5 h is 6.27%.

For the compound `CC1=C(C(=O)N(C)Cc2n[nH]c3c2CCCCC3)C(C)NC(=O)N1` (configuration not stated), the cytotoxicity at 70.5 h was found to be 31%.

Regarding `Cc1ccc(N2CCC(c3nccn3Cc3cscn3)CC2)nn1`, the cytotoxicity at 70.5 h was found to be 0.241%.

In the case of `CCNC(=O)[C@@H]1C[C@@H](NC(=O)c2cnc[nH]c2=O)CN1Cc1ccsc1`, the cytotoxicity at 70.5 h was -2.36%.

`CC(=O)N1CCN(C(=O)Nc2ccccc2Cl)[C@H]2CS(=O)(=O)C[C@H]21`: the cytotoxicity at 70.5 h was -16%.

As for `CCc1nccn1CCC(=O)N1CC(=O)N(c2ccccc2C)CC1C` (configuration not stated), the cytotoxicity at 70.5 h is -7.9%.

Take `O=C(NCc1nc(NC2CCCC2)c2cc(Cl)ccc2n1)c1ccoc1`: the cytotoxicity at 70.5 h came out at 5.65%.

Regarding `COc1ccc(-c2nccn2C[C@@H]2CCCN3CCCC[C@H]23)cc1`, the cytotoxicity at 70.5 h came to 1.3%.

In the case of `CC(C)c1cc(C(=O)N2CCCC2c2nc(-c3ccccc3)no2)[nH]n1` (configuration not stated), the cytotoxicity at 70.5 h was -0.676%.

Consider `Cc1nc[nH]c1-c1nccn1CCN1CCCOC1=O`, for which the cytotoxicity at 70.5 h is -5.03%.

With `COc1cc(OC)nc(N2CCCC(c3nccn3CCN(C)C)C2)n1` (configuration not stated), the cytotoxicity at 70.5 h was 30.4%.

As for `CCCN1CCN(Cc2cccc(OC(C)C)c2)[C@H]2CS(=O)(=O)C[C@H]21`, the cytotoxicity at 70.5 h was found to be 12.5%.

In the case of `CNc1ncccc1C(=O)N1CCN(Cc2ccc(C)cc2)C(=O)C1C` (configuration not stated), the cytotoxicity at 70.5 h was -13.8%.

For `Cc1nc2c(c(=O)n1C)CCN(C(=O)Cn1cccc1)CC2`, the cytotoxicity at 70.5 h was -4.24%.

Turning to `CCCc1nnc(N2CCC(N3CCN(CCO)CC3)CC2)o1`, the cytotoxicity at 70.5 h was -5.69%.

On to `CN(Cc1cnn(C)c1)Cc1nc(CCc2ccccc2)no1`, for which the cytotoxicity at 70.5 h was -4.56%.

`CN(Cc1ccc(-n2cccn2)cc1)C(=O)CCC(F)(F)F`: the cytotoxicity at 70.5 h stood at 26.9%.

`CC(C)[C@H]1CN(CCCO)C[C@@H]1NC(=O)CCS(C)(=O)=O`: the cytotoxicity at 70.5 h was -3.16%.

On to `CCCn1cc(C(=O)NC(CC(=O)O)c2ccccc2F)c(C)n1` (configuration not stated), for which the cytotoxicity at 70.5 h was 6.87%.

For `CCC(CC)n1nc(C)cc1NC(=O)CC1CCOCC1`, the cytotoxicity at 70.5 h was -8.16%.

As for `CSCc1nc(CNC(=O)C2CCCN(C(=O)N(C)C)C2)cs1` (configuration not stated), the cytotoxicity at 70.5 h was -7.03%.

With `Cc1cccc(C)c1OC1CN(Cc2cnc(-c3ccco3)nc2)C1`, the cytotoxicity at 70.5 h is -6.4%.

As to `C[C@@H]1CN(C(=O)C2CCS(=O)(=O)CC2)C[C@]1(C)O`, the cytotoxicity at 70.5 h was -8.15%.

On to `CSCCCN(CCN1CCOCC1)Cc1ccco1`, for which the cytotoxicity at 70.5 h was -9.79%.

Take `CO[C@H]1CN(C(=O)c2ccc(-c3ccccc3)[nH]2)CC[C@H]1N`: the cytotoxicity at 70.5 h is -10.1%.

`CSCCNC(=O)C1CCC(=O)N(C2CCCC2)C1` (configuration not stated): the cytotoxicity at 70.5 h came to 0.162%.

For the compound `COc1cc(C)ccc1OCc1nc(C(=O)N2CCCNC(=O)C2)co1`, the cytotoxicity at 70.5 h was -5.88%.

For `NCCc1nc(N(Cc2nccs2)C2CC2)c2ccccc2n1`, the cytotoxicity at 70.5 h worked out at 37.2%.

Consider `Cc1c(-c2ccccc2)ncn1CCCNc1cccnc1`, for which the cytotoxicity at 70.5 h is -4.84%.

Turning to `Cn1nc(C(C)(C)C)cc1NC(=O)Cn1ccnc1`, the cytotoxicity at 70.5 h is -10.5%.

Consider `CC(C)c1cncnc1-c1cc(F)cc2c1OC(CN)C2` (configuration not stated), for which the cytotoxicity at 70.5 h is -1.8%.

On to `CC(C)c1cc(C(=O)N(C)C(C)c2nccs2)no1` (configuration not stated), for which the cytotoxicity at 70.5 h is -7.34%.

With `O=C(CN1CCc2onc(-c3ccccc3F)c2C1)NC1CC1`, the cytotoxicity at 70.5 h is -9.25%.

`COc1cc(F)ccc1C(C(=O)O)N1CCN(C2CCCCC2)CC1` (configuration not stated): the cytotoxicity at 70.5 h is -4.9%.

Take `NC(=O)CN1CCCC(C(=O)N2CCC(O)(c3ccccc3)CC2)C1` (configuration not stated): the cytotoxicity at 70.5 h turned out to be 31%.

Turning to `CC(C)(NC(=O)c1coc(COc2cccc(F)c2)n1)C(N)=O`, the cytotoxicity at 70.5 h is -8.32%.

Take `CC(C)N1CCC(CC(=O)NCC2OCCc3ccccc32)CC1` (configuration not stated): the cytotoxicity at 70.5 h was -9.87%.

Turning to `COC(=O)C(CO)NC(=O)c1cn(Cc2ccccc2F)nn1` (configuration not stated), the cytotoxicity at 70.5 h was -8.74%.

For `Cc1ccc2nc(C(=O)N3CCC(CCn4cccn4)CC3)cn2c1`, the cytotoxicity at 70.5 h is 16%.

For `CC[C@@]1(O)CCN(C(=O)CCSCc2ccc(F)cc2)C[C@H]1O`, the cytotoxicity at 70.5 h was 14.3%.
